# Experimental data reported in paper PMC11601558, “SLC6A19 inhibition facilitates urinary neutral amino acid excretion and lowers plasma phenylalanine” (JCI Insight, 2024).
# Where “and” joins values, the source holds several entries; their conditions need not be identical. Identical values can stand only once.
# Tested on: Pah^enu2 mice
# Experiment: Urine amino acid excretion in Pah^enu2 mice after JN-170
# Type: in vivo, mouse
# Set-up: urine Gln excretion / urine Phe excretion: unit not given here
# Details: for 12-hour urine Phe excretion (Fig 3c): individual Pah^enu2 mice
# Procedure: Male homozygous BTBR-Pah<enu2>/J (Pah^enu2) aged 10–13 weeks were purchased from Jackson Laboratory (no. 002232). Immediately before dosing, each animal’s bladder was manually emptied and a plasma sample was drawn. Animals were dosed by oral gavage with vehicle (10% DMSO, 20% 2-hydroxypropyl-β-cyclodextrin [Sigma-Aldrich]) followed by a 1-week washout prior to dosing with JN-170 at doses ranging from 50 to 250 mg/kg. Following dosing with vehicle or JN-170, animals were individually placed in metabolic cages to collect urine samples. After collection of each urine sample, cages were rinsed with ultra-pure water to recover residual analytes. Blood samples were collected predose as well as 1, 3, 8, 12, and 24 hours after dosing with vehicle or JN-170 into tubes with EDTA as a […], and plasma was separated by centrifuging samples at 2,200g for 5 minutes at 4°C. Throughout the study, mice had access to food and water ad libitum. Plasma and urine samples were stored at –80°C until processing.Ten-week-old male WT C57Bl/6J animals (Si Bei Fu Laboratory Animal Technology Co. Ltd.) were dosed either with vehicle or 50–250 mg/kg JN-170 by oral gavage and blood and urine samples were collected as described. All animals had unrestricted access to food and water during the study; C57Bl/6J were kept on rodent maintenance diet from Beijing Keao Xieli, Pah^enu2 mice were kept on Teklad diet no. T.2018.
# Urine and cage-wash samples were vortexed and centrifuged at 3,700g for 5 minutes to remove any solid precipitate. Neat samples and samples diluted 1:10 in water were further diluted 1:10 in crash solution (75% acetonitrile 25% methanol, 0.1% formic acid, 5 mM heavy labeled amino acids) to precipitate proteins. Samples were centrifuged at 3,700g for 5 minutes before the supernatant was transferred into an injection plate. Urine amino acid analysis was carried out using a quadrupole time of flight (QToF) LC-mass spectrometry (QToF-LC-MS) bioanalytical method. A standard curve of 1 mM down to 0.06 μM was used as the calibration curve to which samples were quantified. The amino acid concentrations were calculated with a 1/×2 linear regression over a concentration range of 60 nM to 1,000 μM of the individual amino acids. An Agilent QToF 6545 was operated in an accurate mass full scan range of 100–1,700 m/z positive ions formed by electrospray ionization with a normal phase HILIC chromatographic method. An Agilent InfinityLab Poroshell 120 HILIC-Z, 2.1 × 150 mm, 2.7 μm was used as the analytical column with 10 mM Ammonium Acetate in 0.1% FA as mobile phase A and 10 mM Ammonium Acetate in 95% ACN, 0.1% FA as mobile phase B. At a flow rate of 0.25 mL/min, the binary gradient increased from an initial 100% phase B to 90% phase B over 3 minutes. After 1.5 minutes, the gradient ramped to 80% mobile phase B. At 5.6 minutes into the gradient, mobile phase B ramped from 60% to 0% and held for 2 minutes before returning to initial conditions at 7.5 minutes. The gradient was stopped at 10 minutes.Total urine amino acid amounts were calculated by multiplying urine amino acid concentrations by the urine volume and adding the amount of amino acid recovered in the cage wash, which was calculated by multiplying the cage wash amino acid concentration by the cage wash volume.
# [1] = Fig S3b, Pahenu2 mice, individual animals
# [2] = Pah^enu2 mice, 0–3 hours after 200 mg/kg
compound,measurement,setting,value
N#Cc1ccc(-c2noc([C@]3(C(F)(F)F)CCN(C(=O)NCCC4(N)CC4)C3)n2)cc1 [JN-170],"urinary excretion of Phe, Pah^enu2 vs WT mice",0–3 hours after 200 mg/kg,approximately 60 fold
same,change in 12 hour urine Arg excretion (Fig 3b),50 mg/kg vs vehicle,0.3802 log FC
same,change in 12 hour urine Gln excretion (Fig 3b),50 mg/kg vs vehicle,1.423 log FC
same,change in 12 hour urine Glu excretion (Fig 3b),50 mg/kg vs vehicle,0.4771 log FC
same,change in 12 hour urine His excretion (Fig 3b),50 mg/kg vs vehicle,1.279 log FC
same,change in 12 hour urine Lys excretion (Fig 3b),50 mg/kg vs vehicle,0.2248 log FC
same,change in 12 hour urine Met excretion (Fig 3b),50 mg/kg vs vehicle,0.6756 log FC
same,change in 12 hour urine Phe excretion (Fig 3b),50 mg/kg vs vehicle,1.34 log FC
same,change in 12 hour urine Pro excretion (Fig 3b),50 mg/kg vs vehicle,-0.2483 log FC
same,change in 12 hour urine Ser excretion (Fig 3b),50 mg/kg vs vehicle,0.9904 log FC
same,change in 12 hour urine Thr excretion (Fig 3b),50 mg/kg vs vehicle,1.084 log FC
same,change in 12 hour urine Trp excretion (Fig 3b),50 mg/kg vs vehicle,1.144 log FC
same,change in 12 hour urine Tyr excretion (Fig 3b),50 mg/kg vs vehicle,1.331 log FC
same,12-hour urine Phe excretion (Fig 3c),50 mg/kg,2329 µg and 2669 µg and 1215 µg and 2142 µg and 1931 µg and 2386 µg
same,change in 12 hour urine Arg excretion (Fig 3b),100 mg/kg vs vehicle,0.4771 log FC
same,change in 12 hour urine Gln excretion (Fig 3b),100 mg/kg vs vehicle,2.5092 log FC
same,change in 12 hour urine Glu excretion (Fig 3b),100 mg/kg vs vehicle,0.7782 log FC
same,change in 12 hour urine His excretion (Fig 3b),100 mg/kg vs vehicle,2.097 log FC
same,change in 12 hour urine Lys excretion (Fig 3b),100 mg/kg vs vehicle,0.583 log FC
same,change in 12 hour urine Met excretion (Fig 3b),100 mg/kg vs vehicle,1.421 log FC
same,change in 12 hour urine Phe excretion (Fig 3b),100 mg/kg vs vehicle,1.508 log FC
same,change in 12 hour urine Pro excretion (Fig 3b),100 mg/kg vs vehicle,0.2706 log FC
same,change in 12 hour urine Ser excretion (Fig 3b),100 mg/kg vs vehicle,1.62 log FC
same,change in 12 hour urine Thr excretion (Fig 3b),100 mg/kg vs vehicle,1.727 log FC
same,change in 12 hour urine Trp excretion (Fig 3b),100 mg/kg vs vehicle,1.687 log FC
same,change in 12 hour urine Tyr excretion (Fig 3b),100 mg/kg vs vehicle,1.929 log FC
same,12-hour urine Phe excretion (Fig 3c),100 mg/kg,3398 µg and 3162 µg and 4227 µg and 2980 µg and 2439 µg and 2425 µg
same,"12-hour urinary Phe excretion, mean ± SD",200 mg/kg,"4,170 ± 1505 μg"
same,change in 12 hour urine Arg excretion (Fig 3b),200 mg/kg vs vehicle,0.4472 log FC
same,change in 12 hour urine Gln excretion (Fig 3b),200 mg/kg vs vehicle,2.528 log FC
same,change in 12 hour urine Glu excretion (Fig 3b),200 mg/kg vs vehicle,0.7559 log FC
same,change in 12 hour urine His excretion (Fig 3b),200 mg/kg vs vehicle,2.089 log FC
same,change in 12 hour urine Lys excretion (Fig 3b),200 mg/kg vs vehicle,0.6206 log FC
same,change in 12 hour urine Met excretion (Fig 3b),200 mg/kg vs vehicle,1.349 log FC
same,change in 12 hour urine Phe excretion (Fig 3b),200 mg/kg vs vehicle,1.635 log FC
same,change in 12 hour urine Pro excretion (Fig 3b),200 mg/kg vs vehicle,0.1887 log FC
same,change in 12 hour urine Ser excretion (Fig 3b),200 mg/kg vs vehicle,1.594 log FC
same,change in 12 hour urine Thr excretion (Fig 3b),200 mg/kg vs vehicle,1.712 log FC
same,change in 12 hour urine Trp excretion (Fig 3b),200 mg/kg vs vehicle,1.74 log FC
same,change in 12 hour urine Tyr excretion (Fig 3b),200 mg/kg vs vehicle,1.783 log FC
same,12-hour urine Phe excretion (Fig 3c),200 mg/kg,3871 µg and 5519 µg and 1571 µg and 5260 µg and 3572 µg and 5225 µg
same,change in 12 hour urine Arg excretion (Fig 3b),250 mg/kg vs vehicle,0.6435 log FC
same,change in 12 hour urine Gln excretion (Fig 3b),250 mg/kg vs vehicle,2.17 log FC
same,change in 12 hour urine Glu excretion (Fig 3b),250 mg/kg vs vehicle,0.7482 log FC
same,change in 12 hour urine His excretion (Fig 3b),250 mg/kg vs vehicle,1.862 log FC
same,change in 12 hour urine Lys excretion (Fig 3b),250 mg/kg vs vehicle,0.7733 log FC
same,change in 12 hour urine Met excretion (Fig 3b),250 mg/kg vs vehicle,1.454 log FC
same,change in 12 hour urine Phe excretion (Fig 3b),250 mg/kg vs vehicle,1.613 log FC
same,change in 12 hour urine Pro excretion (Fig 3b),250 mg/kg vs vehicle,0.0877 log FC
same,change in 12 hour urine Ser excretion (Fig 3b),250 mg/kg vs vehicle,1.762 log FC
same,change in 12 hour urine Thr excretion (Fig 3b),250 mg/kg vs vehicle,1.809 log FC
same,change in 12 hour urine Trp excretion (Fig 3b),250 mg/kg vs vehicle,1.96 log FC
same,change in 12 hour urine Tyr excretion (Fig 3b),250 mg/kg vs vehicle,1.972 log FC
same,12-hour urine Phe excretion (Fig 3c),250 mg/kg,2655 µg and 3486 µg and 5073 µg and 6377 µg and 3651 µg and 2501 µg
same,urine Gln excretion,[1],800 and 1688 and 2419 and 1193 and 1615
same,urine Phe excretion,[1],1730 and 2424 and 3033 and 1556 and 1834
same,"glutamine excreted in urine, mean ± SD",[2],"1,543 ± 606 μg"
same,"urinary excretion of Phe, mean ± SD",[2],"2,115 ± 608 μg"
same,increase in urinary Phe excretion,"≥ 200 mg/kg, 12-hour urine, vs vehicle",> 40 fold
